Results reported in paper PMC4594923, “Food Polyphenols Fail to Cause a Biologically Relevant Reduction of COX-2 Activity” (PLoS ONE, 2015).
Marks after values point to notes of the source that are not given here.

Tests used:
COX–2 [1] = target: T1, COX–2 (Homo sapiens, UniProt P35354); experiment: cell-free COX–2 enzyme assay (PGE2 formation, LC-MS); assay type: biochemical
T1 sequence (P35354 18-604): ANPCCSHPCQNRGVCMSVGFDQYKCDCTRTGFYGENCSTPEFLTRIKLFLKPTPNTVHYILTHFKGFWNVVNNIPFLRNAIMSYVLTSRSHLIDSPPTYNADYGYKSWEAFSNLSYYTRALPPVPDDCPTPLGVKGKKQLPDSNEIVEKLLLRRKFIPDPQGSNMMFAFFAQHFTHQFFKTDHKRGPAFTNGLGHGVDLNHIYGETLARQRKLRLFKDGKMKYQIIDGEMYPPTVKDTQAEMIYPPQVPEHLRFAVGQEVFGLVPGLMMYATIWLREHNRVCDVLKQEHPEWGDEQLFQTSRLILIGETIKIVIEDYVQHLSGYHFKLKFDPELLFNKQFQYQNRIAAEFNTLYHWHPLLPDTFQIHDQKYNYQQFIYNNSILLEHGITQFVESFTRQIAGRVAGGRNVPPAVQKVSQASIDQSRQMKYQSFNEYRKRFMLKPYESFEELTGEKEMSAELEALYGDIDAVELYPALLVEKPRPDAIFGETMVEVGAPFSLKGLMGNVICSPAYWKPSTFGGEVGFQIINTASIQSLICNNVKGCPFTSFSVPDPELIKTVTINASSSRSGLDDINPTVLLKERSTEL
Procedure: (§1) The in vitro assays were performed as described [6, 16, 18] and COX metabolites were quantified by LC-MS [18].
(§2) Primary human monocytes were freshly isolated from human blood. Blood was collected from healthy human subjects after written informed consent was obtained. […] After 24 h, the supernatant was sampled for LC-MS and cells were collected for the COX–2 expression analysis by Western Blotting.
(§3) GraphPad Prism 5.0 (GraphPad Software, San Diego, USA) was used for data analysis, the fitting of dose response curves and calculation of the IC50 values. Statistical differences were determined by Dunnetts test (LPS vs. other groups).

[2] = test system: arachidonic acid (AA) cascade; experiment: liver tissue oxylipin/PG levels in LPS induced sepsis in mice; assay type: in vivo, C57BL/6N mice; conditions: liver tissue 24 h after LPS treatment;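 also: male C57BL/6N mice pretreated i.p. with polyphenols at 100 mg/kg bw or vehicle before LPS, liver oxylipins measured by LC-MS after solid-phase extraction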
Source text: Twelve week old male C57BL/6N mice (Charles River, Sulzfeld, Germany) were used for all experiments. C57BL/6 male mice (H2^b, 11–13 weeks of age) were obtained from Charles River (Sulzfeld, Germany). Animals were cared for in accordance with the institution’s guidelines for experimental animals and with the guidelines of the American Physiological Society. […] Mice were monitored closely and if they appeared compromised (i.e. inactivity, no intake of food or water) after compound or LPS injection the experiment was terminated.
Oxylipin levels were analyzed in plasma and tissues by LC-MS following SPE extraction of 200 μl plasma or tissue homogenate (50 mg) on Chromabond C18 ec cartridges (Machery-Nagel, Düren, Germany) [19].
as §3

[3] = clinical chemistry in plasma (urea, creatinine, AST, ALT, LDH) in LPS induced sepsis in mice; assay type: in vivo, C57BL/6N mice; conditions: compound i. p. 100 mg/kg bw 2 h before LPS, 24 h after LPS
COX–2 [4] = conditions: cited from earlier work
COX–2 protein = conditions: cited from earlier work
ovine recombinant COX–1 = target: T2, ovine recombinant COX–1 (Ovis aries, UniProt P05979); experiment: cell-free COX–1 enzyme assay (PGE2 formation, LC-MS); assay type: biochemical; parameters: purchased Cayman Chemicals/ Biomol, Hamburg, Germany
T2 sequence (P05979 25-600): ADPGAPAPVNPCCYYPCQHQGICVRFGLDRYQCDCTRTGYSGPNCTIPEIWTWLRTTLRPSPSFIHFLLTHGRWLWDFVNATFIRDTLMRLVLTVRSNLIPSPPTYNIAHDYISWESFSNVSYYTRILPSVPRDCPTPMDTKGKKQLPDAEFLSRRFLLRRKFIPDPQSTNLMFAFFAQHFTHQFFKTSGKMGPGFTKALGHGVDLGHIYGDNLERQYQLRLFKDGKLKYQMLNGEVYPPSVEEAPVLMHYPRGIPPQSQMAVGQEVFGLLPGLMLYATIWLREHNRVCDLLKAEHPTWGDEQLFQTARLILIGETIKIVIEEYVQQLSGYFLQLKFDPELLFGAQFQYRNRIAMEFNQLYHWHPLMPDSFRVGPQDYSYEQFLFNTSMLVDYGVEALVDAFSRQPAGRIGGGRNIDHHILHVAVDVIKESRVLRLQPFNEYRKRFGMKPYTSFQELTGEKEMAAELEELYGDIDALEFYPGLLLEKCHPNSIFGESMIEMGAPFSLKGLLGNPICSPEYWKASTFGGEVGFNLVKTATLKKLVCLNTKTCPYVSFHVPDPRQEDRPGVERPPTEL
Procedure: as §1, §2, §3

[5] = calculated based on PGE2, n = 3

Question: What does the source list for `O=c1c(-c2ccc(O)cc2)coc2cc(O)cc(O)c12` [Genistein, genistein]?
Answer: effect on COX–2 dependent PGE2 formation, cell-free enzyme assay (COX–2 [1]): no effect; IC50 (95% CI), COX–2 enzyme assay (COX–2 [1]; [5]): no effect (up to 30 μM); 4,5-DiHDPE concentration ([2]; mean): 64 nM; 4-HDHA concentration ([2]; mean): 14 nM; 5(6)-EpETrE concentration ([2]; mean): 90 nM; 5,6-DiHETE concentration ([2]; mean): < 0.30 nM; 5,6-DiHETrE concentration ([2]; mean): 6.3 nM; 5-HEPE concentration ([2]; mean): 2.7 nM; 5-HETE concentration ([2]; mean): 2.7 nM; 5-iPF2α concentration ([2]; mean): < 1.0 nM; 5-oxo-ETE concentration ([2]; mean): 19 nM; 6-keto-PGF1α concentration ([2]; mean): 74 nM; 7,8-DiHDPE concentration ([2]; mean): 6.3 nM; 7-HDHA concentration ([2]; mean): 4.4 nM; 8(9)-EpETE concentration ([2]; mean): 2.5 nM; 8(9)-EpETrE concentration ([2]; mean): 20 nM; 8,9-DiHETE concentration ([2]; mean): 2.6 nM; 8,9-DiHETrE concentration ([2]; mean): 12 nM; 8,15-DiHETE concentration ([2]; mean): 0.88 nM; 8-HDHA concentration ([2]; mean): 25^* nM; 8-HEPE concentration ([2]; mean): 1.2 nM; 8-HETE concentration ([2]; mean): 10 nM; 8-iPF2α concentration ([2]; mean): 3.0^* nM; 9(10)-EpODE concentration ([2]; mean): 12 nM; 9(10)-EpOME concentration ([2]; mean): 130 nM; 9(10)-Epoxystearic acid concentration ([2]; mean): 82 nM; 9,10,13-TriHOME concentration ([2]; mean): 8.6^* nM; 9,10-DiHODE concentration ([2]; mean): 7.6 nM; 9,10-DiHOME concentration ([2]; mean): 82 nM; 9,10-Dihydroxystearic acid concentration ([2]; mean): 64 nM; 9,12,13-TriHOME concentration ([2]; mean): 64 nM; 9-HETE concentration ([2]; mean): 6.2 nM; 9-HODE concentration ([2]; mean): 550 nM; 9-HOTrE concentration ([2]; mean): 9.9 nM; 9-oxo-ODE concentration ([2]; mean): 160 nM; 10(11)-EpDPE concentration ([2]; mean): 33^* nM; 10,11-DiHDPE concentration ([2]; mean): 11 nM; 10-HDHA concentration ([2]; mean): 7.6 nM; 11(12)-EpETE concentration ([2]; mean): 5.1^† nM; 11(12)-EpETrE concentration ([2]; mean): 51 nM; 11,12-DiHETE concentration ([2]; mean): 2.9 nM; 11,12-DiHETrE concentration ([2]; mean): 22 nM; 11-HDHA concentration ([2]; mean): 7.0 nM; 11-HETE concentration ([2]; mean): 35 nM; 12(13)-EpODE concentration ([2]; mean): 5.7 nM; 12(13)-EpOME concentration ([2]; mean): 110 nM; 12,13-DiHODE concentration ([2]; mean): 5.7 nM; 12,13-DiHOME concentration ([2]; mean): 210 nM; 12-HEPE concentration ([2]; mean): 39 nM; 12-HETE concentration ([2]; mean): 150 nM; 13(14)-EpDPE concentration ([2]; mean): 27^* nM; 13,14-DiHDPE concentration ([2]; mean): 15 nM; 13,14-dihydro-15-keto-PGE1 concentration ([2]; mean): 0.61 nM; 13,14-dihydro-15-keto-PGF2α concentration ([2]; mean): 8.2^* nM; 13-HDHA concentration ([2]; mean): 16^† nM; 13-HODE concentration ([2]; mean): 530 nM; 13-HOTrE concentration ([2]; mean): 18 nM; 13-oxo-ODE concentration ([2]; mean): 20 nM; 14(15)-EpETE concentration ([2]; mean): 3.3 nM; 14(15)-EpETrE concentration ([2]; mean): 44^* nM; 14,15-DiHETE concentration ([2]; mean): 8.6 nM; 14,15-DiHETrE concentration ([2]; mean): 62 nM; 14-HDHA concentration ([2]; mean): 97 nM; 15(16)-EpODE concentration ([2]; mean): 27 nM; 15(S)-HETrE concentration ([2]; mean): 14 nM; 15,16-DiHODE concentration ([2]; mean): 63 nM; 15-HEPE concentration ([2]; mean): 4.0 nM; 15-HETE concentration ([2]; mean): 40 nM; 15-oxo-ETE concentration ([2]; mean): 5.8 nM; 16(17)-EpDPE concentration ([2]; mean): 27^* nM; 16,17-DiHDPE concentration ([2]; mean): 35 nM; 16-HDHA concentration ([2]; mean): 8.1^* nM; 17(18)-EpETE concentration ([2]; mean): 4.6 nM; 17,18-DiHETE concentration ([2]; mean): 19 nM; 17-HDHA concentration ([2]; mean): 25 nM; 18-HEPE concentration ([2]; mean): 4.6 nM; 19(20)-EpDPE concentration ([2]; mean): 40^* nM; 19,20-DiHDPE concentration ([2]; mean): 170 nM; 20-HDHA concentration ([2]; mean): 27^* nM; 20-HEPE concentration ([2]; mean): 22 nM; 20-HETE concentration ([2]; mean): 6.3 nM; EKODE concentration ([2]; mean): 40 nM; PGD1 concentration ([2]; mean): 2.3 nM; PGD2 concentration ([2]; mean): 42 nM; PGE1 concentration ([2]; mean): 3.7 nM; PGE2 concentration ([2]; mean): 21 nM; PGF1α concentration ([2]; mean): 6.9 nM; TXB2 concentration ([2]; mean): 31 nM; TxB3 concentration ([2]; mean): 1.2 nM; dihomo-PGF2α concentration ([2]; mean): 5.3 nM; PGF2α concentration ([2]; mean (first listing, r6)): 57 nM; PGF2α concentration ([2]; mean (second listing, r9)): 57 nM; plasma ALT activity [3]: elevated; plasma AST activity [3]: elevated; PGE2 formation / levels, RAW 264.7 cells (COX–2 [4]): reduced PGE2 formation; COX–2 (protein) levels, RAW 264.7 cells (COX–2 protein): reduced; effect on COX–1 dependent PGE2 formation, cell-free enzyme assay (ovine recombinant COX–1): no effect; IC50 (95% CI), COX–1 enzyme assay (ovine recombinant COX–1; [5]): no effect (up to 30 μM)
